Tests used:
[1] = Fluorescence excitation and emission; type: physicochemical
[2] = UV/vis absorption in PBS; type: physicochemical; conditions: 100 μM in PBS

SMILES	Fluorescence λem ([1]; 100 nM)	Fluorescence λex ([1]; 100 nM)	UV/vis λabs [2]	Fluorescence λem ([1]; concentration not given)	Fluorescence λex ([1]; concentration not given)
N=C(N)c1ccc(CNC(=O)c2nc(N)c(C(=O)NCc3ccc(C(=N)N)cc3)nc2N)cc1 [Example 1, 3,6-diamino-N2,N5-bis(4-carbamimidoylbenzyl)pyrazine-2,5-dicarboxamide]	554 nm	428 nm	437 nm	–	–
Nc1nc(C(=O)NCC(O)CO)c(N)nc1C(=O)NCC(O)CO (stereo not drawn) [Example 3, 3,6-diamino-N^2,N^5-bis(2,3-dihydroxypropyl)pyrazine-2,5-dicarboxamide]	–	–	434 nm	559 nm	449 nm
Nc1nc(C(=O)N[C@@H](CO)C(=O)O)c(N)nc1C(=O)N[C@@H](CO)C(=O)O [Example 4, 3,6-Diamino-N^2,N^5-bis(serine)-pyrazine-2,5-dicarboxamide]	–	–	432 nm	558 nm	432 nm

From US8313729B2, “Integrated photoactive small molecules and uses thereof” (Medibeacon, LLC, priority 2007, dated 2012)
